Holding throughout (type): cell-based
In test [1] the target is T1, human TLR8 (Homo sapiens, UniProt Q9NR97).
T1 construct: host or cells: HEK-Blue cells
T1 sequence (Q9NR97 27-1041): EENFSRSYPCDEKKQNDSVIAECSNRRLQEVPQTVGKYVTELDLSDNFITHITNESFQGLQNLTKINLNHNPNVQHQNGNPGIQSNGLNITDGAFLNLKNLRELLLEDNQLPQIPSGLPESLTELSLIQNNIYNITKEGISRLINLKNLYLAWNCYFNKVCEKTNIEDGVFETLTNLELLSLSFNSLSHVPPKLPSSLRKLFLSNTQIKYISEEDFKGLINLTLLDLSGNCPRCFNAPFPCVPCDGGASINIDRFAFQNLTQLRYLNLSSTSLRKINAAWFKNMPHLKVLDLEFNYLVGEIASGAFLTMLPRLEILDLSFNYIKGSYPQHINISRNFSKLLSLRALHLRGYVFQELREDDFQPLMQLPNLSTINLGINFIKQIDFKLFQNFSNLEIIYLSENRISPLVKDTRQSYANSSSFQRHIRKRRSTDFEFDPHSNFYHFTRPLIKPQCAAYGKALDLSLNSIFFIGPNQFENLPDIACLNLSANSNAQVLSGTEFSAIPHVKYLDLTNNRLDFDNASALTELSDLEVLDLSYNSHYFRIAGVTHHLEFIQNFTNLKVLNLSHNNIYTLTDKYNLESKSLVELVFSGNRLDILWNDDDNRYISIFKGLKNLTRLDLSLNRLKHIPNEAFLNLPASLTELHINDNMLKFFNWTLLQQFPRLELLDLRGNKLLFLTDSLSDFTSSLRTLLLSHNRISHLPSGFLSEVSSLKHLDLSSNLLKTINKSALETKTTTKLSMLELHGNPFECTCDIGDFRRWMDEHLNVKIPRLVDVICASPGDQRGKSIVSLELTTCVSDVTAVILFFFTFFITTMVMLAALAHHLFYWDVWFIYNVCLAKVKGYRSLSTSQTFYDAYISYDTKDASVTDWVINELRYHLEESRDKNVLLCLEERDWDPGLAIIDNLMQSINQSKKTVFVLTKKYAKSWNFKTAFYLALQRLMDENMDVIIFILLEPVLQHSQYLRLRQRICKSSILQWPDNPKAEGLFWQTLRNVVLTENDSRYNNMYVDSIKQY
The test can be described thus: TLR8 inhibition reporter assay (HEK-Blue, SEAP). To be noted: HEK-Blue cells overexpressing human TLR8, R848 15.9 μM, 22 hour incubation. The essentials: (§1)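 Agonists used: gardiquimod 7.5 μM (TLR7), R848 15.9 μM (TLR8), ODN2006 5 nM (TLR9), added after 30 min room-temperature compound pre-treatment (0.05 nM–50 μM) of receptor-overexpressing HEK-Blue cells. SEAP reporter (NF-κB/AP-1 driven) read after 22 h at 37 °C; inhibition scaled between agonist+DMSO and reference-inhibitor wells.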
Background: Reporter assays use an easily measured gene product as a stand-in for the process of interest.

Test [2] addresses T2, human TLR7 (Homo sapiens, UniProt Q9NYK1).
T2 construct: host or cells: HEK-Blue cells
T2 sequence (Q9NYK1 27-1049): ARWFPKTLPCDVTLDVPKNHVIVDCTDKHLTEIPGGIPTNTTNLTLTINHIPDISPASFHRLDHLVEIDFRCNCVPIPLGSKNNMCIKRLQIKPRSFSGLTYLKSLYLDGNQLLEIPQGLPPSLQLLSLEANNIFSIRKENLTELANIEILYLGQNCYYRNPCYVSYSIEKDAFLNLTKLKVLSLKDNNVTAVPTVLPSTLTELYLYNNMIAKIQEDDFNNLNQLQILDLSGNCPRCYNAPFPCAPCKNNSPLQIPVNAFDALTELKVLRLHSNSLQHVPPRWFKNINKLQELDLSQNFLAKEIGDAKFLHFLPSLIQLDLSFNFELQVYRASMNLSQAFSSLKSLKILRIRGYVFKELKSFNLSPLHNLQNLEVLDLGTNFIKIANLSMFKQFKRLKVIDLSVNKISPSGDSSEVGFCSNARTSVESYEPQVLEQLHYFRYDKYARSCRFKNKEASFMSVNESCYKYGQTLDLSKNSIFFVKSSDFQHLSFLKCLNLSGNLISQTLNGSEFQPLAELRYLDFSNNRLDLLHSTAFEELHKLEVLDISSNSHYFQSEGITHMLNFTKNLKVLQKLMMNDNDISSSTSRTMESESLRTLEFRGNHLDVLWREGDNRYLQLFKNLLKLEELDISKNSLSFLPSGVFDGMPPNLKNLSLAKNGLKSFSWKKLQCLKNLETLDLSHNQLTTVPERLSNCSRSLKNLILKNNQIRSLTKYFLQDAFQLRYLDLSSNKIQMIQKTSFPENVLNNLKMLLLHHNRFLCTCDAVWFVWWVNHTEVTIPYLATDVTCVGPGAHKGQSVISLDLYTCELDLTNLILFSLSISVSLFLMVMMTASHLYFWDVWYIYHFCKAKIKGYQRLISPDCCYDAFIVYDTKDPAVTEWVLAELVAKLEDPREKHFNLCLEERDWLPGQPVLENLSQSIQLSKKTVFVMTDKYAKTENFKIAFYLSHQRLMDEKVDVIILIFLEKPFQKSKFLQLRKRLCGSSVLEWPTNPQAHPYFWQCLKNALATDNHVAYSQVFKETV
As to the kind of experiment: TLR7 inhibition reporter assay (HEK-Blue, SEAP). To be noted: HEK-Blue cells overexpressing human TLR7, gardiquimod 7.5 μM, 22 hour incubation. The essentials:
as §1

In test [3] the target is T3, human TLR9 (Homo sapiens, UniProt Q9NR96).
T3 construct: host or cells: HEK-Blue cells
T3 sequence (Q9NR96 26-1032): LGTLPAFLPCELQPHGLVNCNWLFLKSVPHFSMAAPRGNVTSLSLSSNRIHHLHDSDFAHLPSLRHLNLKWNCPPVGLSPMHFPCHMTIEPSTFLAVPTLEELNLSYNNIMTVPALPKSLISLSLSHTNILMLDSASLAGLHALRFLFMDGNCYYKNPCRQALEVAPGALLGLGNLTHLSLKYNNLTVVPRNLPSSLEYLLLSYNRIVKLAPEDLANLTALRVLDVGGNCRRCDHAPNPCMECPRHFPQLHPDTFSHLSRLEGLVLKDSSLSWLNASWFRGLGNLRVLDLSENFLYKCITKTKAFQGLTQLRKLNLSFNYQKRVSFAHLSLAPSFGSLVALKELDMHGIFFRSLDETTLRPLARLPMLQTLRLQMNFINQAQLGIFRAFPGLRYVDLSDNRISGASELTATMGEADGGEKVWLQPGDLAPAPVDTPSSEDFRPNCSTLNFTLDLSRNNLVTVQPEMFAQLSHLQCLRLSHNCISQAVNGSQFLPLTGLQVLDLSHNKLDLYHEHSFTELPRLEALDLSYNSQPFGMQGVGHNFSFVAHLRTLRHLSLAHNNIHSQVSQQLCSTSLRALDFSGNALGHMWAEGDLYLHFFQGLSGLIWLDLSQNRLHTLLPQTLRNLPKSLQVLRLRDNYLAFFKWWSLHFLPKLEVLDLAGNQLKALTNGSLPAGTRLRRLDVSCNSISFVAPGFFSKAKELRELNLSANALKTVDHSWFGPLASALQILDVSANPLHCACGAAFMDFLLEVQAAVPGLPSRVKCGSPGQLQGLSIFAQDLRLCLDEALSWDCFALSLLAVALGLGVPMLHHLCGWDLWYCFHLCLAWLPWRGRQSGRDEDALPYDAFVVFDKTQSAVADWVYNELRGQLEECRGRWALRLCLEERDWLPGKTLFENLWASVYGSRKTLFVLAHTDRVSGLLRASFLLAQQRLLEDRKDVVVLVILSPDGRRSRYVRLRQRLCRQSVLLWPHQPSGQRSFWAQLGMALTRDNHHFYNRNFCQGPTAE
As to the kind of experiment: TLR9 inhibition reporter assay (HEK-Blue, SEAP). Conditions: HEK-Blue cells overexpressing human TLR9, ODN2006 5 nM, 22 hour incubation. The essentials: as §1

The text below walks through data of patent publication US11130756B2, “[1,2,4]Triazolo[4,3-A]pyridinyl substituted indole compounds” (BRISTOL-MYERS SQUIBB COMPANY, priority 2017, dated 2021).

By IC50 is commonly meant the point on the concentration scale where inhibition reaches its midpoint. Low values mean greater potency in that assay, high ones weaker potency in that assay. With `Cc1cc(-c2[nH]c3ccc(C4CCN(CCS(C)(=O)=O)CC4)cc3c2C(C)C)cn2c(C)nnc12` [Example 32, 6-(3-isopropyl-5-(1-(2-(methylsulfonyl)ethyl)piperidin-4-yl)-1H-indol-2-yl)-3,8-dimethyl-[1,2,4]triazolo[4,3-a]pyridine], the IC50 in test [1] was 2.1 nM; in test [2], 11.1 nM; in test [3], 3670 nM.
Regarding `Cc1cc(-c2[nH]c3ccc(C4CCN(Cc5ncn(C)n5)CC4)cc3c2C(C)C)cn2c(C)nnc12` [Example 33, 6-(3-isopropyl-5-(1-((1-methyl-1H-1,2,4-triazol-3-yl)methyl)piperidin-4-yl)-1H-indol-2-yl)-3,8-dimethyl-[1,2,4]triazolo[4,3-a]pyridine], the IC50 was found to be 7.9 nM in test [1], 29.6 nM in test [2] and 5160 nM in test [3].
The matching figures for `Cc1cc(-c2[nH]c3ccc(C4CCN(CC(=O)N(C)C)CC4)cc3c2C(C)C)cn2c(C)nnc12` [Example 34, 2-(4-(2-(3,8-dimethyl-[1,2,4]triazolo[4,3-a]pyridin-6-yl)-3-isopropyl-1H-indol-5-yl)piperidin-1-yl)-N,N-dimethylacetamide]: 4.6 nM, 9.1 nM and 1430 nM.
With `Cc1cc(-c2[nH]c3ccc(C4CCN(CCS(C)(=O)=O)CC4)cc3c2C(C)C)cn2cnnc12` [Example 35, 6-(3-isopropyl-5-(1-(2-(methylsulfonyl)ethyl)piperidin-4-yl)-1H-indol-2-yl)-8-methyl-[1,2,4] triazolo[4,3-a]pyridine], the IC50 turned out to be 3 nM in test [1], 0.7 nM in test [2] and 5840 nM in test [3].
The matching figures for `Cc1cc(-c2[nH]c3ccc(C4CCN(CCCC(F)(F)F)CC4)cc3c2C(C)C)cn2cnnc12` [Example 36, 6-(3-isopropyl-5-(1-(4,4,4-trifluorobutyl)piperidin-4-yl)-1H-indol-2-yl)-8-methyl-[1,2,4]triazolo[4,3-a]pyridine]: 4.5 nM, 1.2 nM and 919 nM.
`Cc1cc(-c2[nH]c3ccc(C4CCN(CC#N)CC4)cc3c2C(C)C)cn2cnnc12` [Example 37, 2-(4-(3-isopropyl-2-(8-methyl-[1,2,4]triazolo[4,3-a]pyridin-6-yl)-1H-indol-5-yl)piperidin-1-yl)acetonitrile]: the IC50 in test [1] turned out to be 6.5 nM; in test [2] it was 0.3 nM; in test [3] it was 1520 nM.
For `COCc1nnc2ccc(-c3[nH]c4ccc(C5CCN(CC(=O)N(C)C)CC5)cc4c3C(C)C)cn12` [Example 38, 2-(4-(3-isopropyl-2-(3-(methoxymethyl)-[1,2,4]triazolo[4,3-a]pyridin-6-yl)-1H-indol-5-yl)piperidin-1-yl)-N,N-dimethylacetamide], the IC50 in test [1] stood at 402 nM; in test [2], 281 nM; in test [3], 3120 nM.
The like results for `Cc1c(-c2[nH]c3ccc(C4CCN(CC(=O)N(C)C)CC4)cc3c2C(C)C)cn2cnnc2c1C` [Example 39, 2-(4-(2-(7,8-dimethyl-[1,2,4]triazolo [4,3-a]pyridin-6-yl)-3-isopropyl-1H-indol-5-yl)piperidin-1-yl)-N,N-dimethylacetamide] were, in that order, 9.5 nM, 1.9 nM and 4240 nM.
Take `Cc1cc(-c2[nH]c3ccc(C4CCN(Cc5ncn(C)n5)CC4)cc3c2C(C)C)c(C)n2cnnc12` [Example 40, 6-(3-isopropyl-5-(1-((1-methyl-1H-1,2,4-triazol-3-yl)methyl)piperidin-4-yl)-1H-indol-2-yl)-5,8-dimethyl-[1,2,4]triazolo[4,3-a]pyridine]: the IC50 turned out to be 4.5 nM in test [1], 104 nM in test [2] and 7890 nM in test [3].
As for `Cc1cc(-c2[nH]c3ccc(C4CCN(CCCC(F)(F)F)CC4)cc3c2C(C)C)c(C)n2cnnc12` [Example 41, 6-(3-isopropyl-5-(1-(4,4,4-trifluorobutyl)piperidin-4-yl)-1H-indol-2-yl)-5,8-dimethyl-[1,2,4]triazolo[4,3-a]pyridine], the IC50 in test [1] amounted to 3.3 nM; in test [2], 25.5 nM; in test [3] it was 2850 nM.
